Reference: patent publication US5616563A, “Glutathione N-hydroxycarbamoyl thioesters and method of inhibiting neoplastic growth” (University of Maryland Baltimore Campus, priority 1994, dated 1997)

Assays:
glyoxalase I = target: T1, glyoxalase I (Saccharomyces cerevisiae, UniProt P50107); conditions: concentration of 50% inhibition of glyoxalase I; c = No inhibitory activity was detected; read-out: I50; cited from earlier work
T1 sequence (P50107 1-326): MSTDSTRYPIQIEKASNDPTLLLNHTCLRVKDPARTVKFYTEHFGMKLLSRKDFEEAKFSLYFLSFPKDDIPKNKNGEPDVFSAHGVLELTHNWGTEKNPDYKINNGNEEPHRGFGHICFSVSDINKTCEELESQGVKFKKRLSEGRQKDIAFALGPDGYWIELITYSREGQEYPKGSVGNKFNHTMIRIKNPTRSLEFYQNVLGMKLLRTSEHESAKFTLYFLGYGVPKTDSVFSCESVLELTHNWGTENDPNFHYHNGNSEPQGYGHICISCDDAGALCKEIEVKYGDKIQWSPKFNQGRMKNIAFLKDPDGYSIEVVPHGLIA

yeast Glx I [1] = target: T2, yeast Glx I (Saccharomyces cerevisiae, UniProt P50107); test: Inhibition of yeast glyoxalase I; type: biochemical
T2 construct: purchased Sigma Chem. Co
T2 sequence (P50107 1-326): T1 sequence (P50107 1-326)

yeast Glx I [2] = target: T2, yeast Glx I; conditions: Hamilton et al. 1992; cited from earlier work
[3] = tested on: Non-Small Cell Lung Cancer (HOP-18); test: NCI tumor cell growth inhibition, non-small cell lung cancer HOP-18
Excerpt: (§1) ^a Concentration for 50% cell growth inhibition versus nodrug
(§2) ^b Concentration for total cell growth inhibition versus nodrug
^c Concentration for 50% cell kill.

[4] = target: bovine liver glyoxalase II (Bos taurus, UniProt Q3B7M2); test: Substrate and inhibition studies with bovine liver glyoxalase II
Description: The standard errors for Vm and Km were obtained by analysis of the initial rate data using the HYPER program of Cleland.
^a HEPES buffer (100 mM, pH 7.4), 25° C.
^b Listed values are relative to Vm for SD-lactoylglutathione.
^c Inhibition constants obtained from using the enediol analogs as

KB cells = conditions: concentration for 50% kill of the cell culture; cited from earlier work
Renal Cancer (ACHN) = test: NCI tumor cell growth inhibition, renal cancer ACHN
Excerpt: as §1, §2
^c Concentration for 50% cell kill.

L1210 leukemia = conditions: concentration for 50% kill of the cell culture; cited from earlier work
Ovarian Cancer (SK-OV-3) = test: NCI tumor cell growth inhibition, ovarian cancer SK-OV-3
Excerpt: as §1, §2
^c Concentration for 50% cell kill.

Colon Cancer (KMZOLZ) = test: NCI tumor cell growth inhibition, colon cancer KMZOLZ
Excerpt: as §1, §2
^c Concentration for 50% cell kill.

Melanoma (UACC-62) = test: NCI tumor cell growth inhibition, melanoma UACC-62
Excerpt: as §1, §2
^c Concentration for 50% cell kill.

CNS Cancer (SNB-75) = test: NCI tumor cell growth inhibition, CNS cancer SNB-75
Excerpt: as §1, §2
^c Concentration for 50% cell kill.

human erythrocyte Glx I = target: T3, human erythrocyte Glx I (Homo sapiens, UniProt Q04760); test: Inhibition of human erythrocyte glyoxalase I; type: biochemical; conditions: Phosphate buffer (50 mM, pH 7), 25° C.; read-out: Ki Erythrocytes
T3 construct: Human erythrocyte Glx I was purified to homogeneity from out-dated human blood; from tissue; host or cells: human erythrocytes (out-dated human blood)
T3 sequence (Q04760 2-184 limits assumed): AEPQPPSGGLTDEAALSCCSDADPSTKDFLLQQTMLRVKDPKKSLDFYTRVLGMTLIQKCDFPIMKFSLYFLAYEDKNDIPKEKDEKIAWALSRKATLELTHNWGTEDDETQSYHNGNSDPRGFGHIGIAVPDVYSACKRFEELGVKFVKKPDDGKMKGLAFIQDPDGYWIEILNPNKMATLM

[5] = of substituent R; cited from earlier work
[6] = Homo sapiens, 48 h, read-out: GI (concentration for 50% cell growth inhibition)
[7] = Homo sapiens, SK-OV-3, read-out: inhibition of cell growth

In the case of `CN(O)C(=O)SC[C@H](NC(=O)CC[C@H](N)C(=O)O)C(=O)NCC(=O)O` [Compound 2, S-(N-Hydroxy N-Methyl Carbamoyl) Glutathione], the IC50 (glyoxalase I) is listed as 9 µM, the “binding energy difference versus deoxy analog 2(a)” value (yeast Glx I [1]) is listed as “about 2.6 Kcal/mole” and the “binds more tightly to active site of Glx I than deoxy analog 2(a)” value (yeast Glx I [1]) is listed as 80 fold. The “binds more tightly to yeast Glx I than S-D-lactoylglutathione” value (yeast Glx I [1]) was “over 30 fold”, the Ki (yeast Glx I [1]; read-out: Ki yeast Glx I) was 68 µM and the “higher affinity of the enzyme versus glycyl-ethyl ester 2(Et)” value (yeast Glx I [2]) was 10 fold. The “LC50 (concentration for 50% cell kill)” value ([3]; HOP-18, 48 hrs. incubation) was > 1000 µM, the “TGI (concentration for total cell growth inhibition)” value ([3]; HOP-18, 48 hrs. incubation) was > 1000 µM and the IC50 ([3]; Homo sapiens, HOP-18, 48 h, read-out: GI (concentration for 50% cell growth inhibition)) was 630 µM. The inhibition at 1000 µM ([3]; Homo sapiens, HOP-18, read-out: cell growth inhibition) was > 65%, the Ki [4] was 426 ± 77 µM and the “Vm (rel.)” value ([4]; relative to Vm for S-D-lactoylglutathione, HEPES buffer (100 mM, pH 7.4), 25° C.) was “(1.7 ± 0.1) × 10^-5”. For the same compound, the “LD50 (KB)” value (KB cells) was 0.11 mM, the “LC50 (concentration for 50% cell kill)” value (Renal Cancer (ACHN); 48 hrs. incubation) was > 1000 µM and the “TGI (concentration for total cell growth inhibition)” value (Renal Cancer (ACHN); 48 hrs. incubation) was > 1000 µM. The IC50 (Renal Cancer (ACHN); [6]) was > 1000 µM, the inhibition at 1000 µM (Renal Cancer (ACHN); Homo sapiens, read-out: inhibition of cell growth) was ~40% and the “effect on cell growth” value (Renal Cancer (ACHN); concentrations lower than 10^-3 M) was “no significant effect”. For the same compound, the “LD50 (L1210)” value (L1210 leukemia) was > 0.20 mM, the IC50 (Ovarian Cancer (SK-OV-3); Homo sapiens, SK-OV-3, 48 h, read-out: GI (concentration for 50% cell growth inhibition)) was 316 µM and the inhibition at 100 µM (Ovarian Cancer (SK-OV-3); [7]) was 20%. The inhibition at 1000 µM (Ovarian Cancer (SK-OV-3); [7]) was > 90%, the “LC50 (concentration for 50% cell kill)” value (Ovarian Cancer (SK-OV-3); SK-OV-3, 48 hrs. incubation) was > 1000 µM and the “TGI (concentration for total cell growth inhibition)” value (Ovarian Cancer (SK-OV-3); SK-OV-3, 48 hrs. incubation) was ~ 1000 μM. The IC50 (Colon Cancer (KMZOLZ); [6]) was > 1000 µM, the “inhibition of cell growth” value (Colon Cancer (KMZOLZ); KMZOL2, "At this concentration" (printed after 10^-4 and below)) was < 30% and the “effect on cell growth” value (Colon Cancer (KMZOLZ); KMZOL2, concentrations of 10^-4 and below) was “no significant effect”. For the same compound, the “LC50 (concentration for 50% cell kill)” value (Colon Cancer (KMZOLZ); KMZOLZ, 48 hrs. incubation) was > 1000 µM, the “TGI (concentration for total cell growth inhibition)” value (Colon Cancer (KMZOLZ); KMZOLZ, 48 hrs. incubation) was > 1000 µM and the IC50 (Melanoma (UACC-62); Homo sapiens, UACC-62, 48 h, read-out: GI (concentration for 50% cell growth inhibition)) was > 1000 µM. For the same compound, the inhibition at 1000 µM (Melanoma (UACC-62); Homo sapiens, UACC-62, read-out: inhibition of cell growth) was 30%, the “effect on cell growth” value (Melanoma (UACC-62); UACC-62, 10^-4 or lower) was “ineffective” and the “LC50 (concentration for 50% cell kill)” value (Melanoma (UACC-62); UACC-62, 48 hrs. incubation) was > 1000 µM. For the same compound, the “TGI (concentration for total cell growth inhibition)” value (Melanoma (UACC-62); UACC-62, 48 hrs. incubation) was > 1000 µM, the “inhibition of cell growth” value (CNS Cancer (SNB-75); CNS human cancer cells, 10^-4 M or lower) was “less than 10%” and the IC50 (CNS Cancer (SNB-75); Homo sapiens, SNB-75, 48 h, read-out: GI (concentration for 50% cell growth inhibition)) was 630 µM. The inhibition at 1000 µM (CNS Cancer (SNB-75); Homo sapiens, SNB-75, read-out: inhibition of cell growth) was 60%, the “LC50 (concentration for 50% cell kill)” value (CNS Cancer (SNB-75); SNB-75, 48 hrs. incubation) was > 1000 µM and the “TGI (concentration for total cell growth inhibition)” value (CNS Cancer (SNB-75); SNB-75, 48 hrs. incubation) was > 1000 µM. The Ki (human erythrocyte Glx I) was 1.95 ± 0.21 µM and the “π (Hansch hydrophobicity constant)” value [5] was 0.5.
